Tests used:
Assay type in all cases: ADME
[1] = The drug is tested on Streptococcus anginosus strain: DSM20563 for biotransformation under anaerobic condition. The drug concentrations were measured over 6 timepoints collected between 0 and 12 hours of incubation by liquid-chromatography-coupled mass spectrometry (LC–MS); set-up: dose 5 uM, timepoint 0, 1.5, 3, 6, 9, 12 hours; conditions: 5 µM
[2] = The drug is tested on Lactobacillus gasseri strain: DSM20243 for biotransformation under microaerobic condition. The drug concentrations were measured over 6 timepoints collected between 0 and 12 hours of incubation by liquid-chromatography-coupled mass spectrometry (LC–MS); set-up: dose 5 uM, timepoint 0, 1.5, 3, 6, 9, 12 hours; conditions: 5 µM
[3] = The drug is tested on Streptococcus sanguinis strain: DSM20567 for biotransformation under microaerobic condition. The drug concentrations were measured over 6 timepoints collected between 0 and 12 hours of incubation by liquid-chromatography-coupled mass spectrometry (LC–MS); set-up: dose 5 uM, timepoint 0, 1.5, 3, 6, 9, 12 hours; conditions: 5 µM
[4] = The drug is tested on Odoribacter splanchnicus strain: DSM20712 for biotransformation under anaerobic condition. The drug concentrations were measured over 6 timepoints collected between 0 and 12 hours of incubation by liquid-chromatography-coupled mass spectrometry (LC–MS); set-up: dose 5 uM, timepoint 0, 1.5, 3, 6, 9, 12 hours; conditions: 5 µM
[5] = The drug is tested on Actinomyces graevenitzii strain: DSM15540 for biotransformation under microaerobic condition. The drug concentrations were measured over 6 timepoints collected between 0 and 12 hours of incubation by liquid-chromatography-coupled mass spectrometry (LC–MS); set-up: dose 5 uM, timepoint 0, 1.5, 3, 6, 9, 12 hours; conditions: 5 µM
[6] = The drug is tested on the gut metagenome community of A-04 with ENA study accession number: PRJEB31790 for biotransformation under anaerobic condition. The drug concentrations were measured over 7 timepoints collected between 0 and 12 hours of incubation by liquid-chromatography-coupled mass spectrometry (LC–MS); set-up: dose 5 uM, timepoint 0, 0.75, 1.5, 3, 6, 9, 12 hours; conditions: 5 µM
[7] = The drug is tested on the gut metagenome community of T-04 with ENA study accession number: PRJEB31790 for biotransformation under anaerobic condition. The drug concentrations were measured over 7 timepoints collected between 0 and 12 hours of incubation by liquid-chromatography-coupled mass spectrometry (LC–MS); set-up: dose 5 uM, timepoint 0, 0.75, 1.5, 3, 6, 9, 12 hours; conditions: 5 µM
[8] = The drug is tested on Lactobacillus reuteri strain: DSM20016 for biotransformation under microaerobic condition. The drug concentrations were measured over 6 timepoints collected between 0 and 12 hours of incubation by liquid-chromatography-coupled mass spectrometry (LC–MS); set-up: dose 5 uM, timepoint 0, 1.5, 3, 6, 9, 12 hours; conditions: limosilactobacillus reuteri, 5 µM
[9] = The drug is tested on the gut metagenome community of A-01 with ENA study accession number: PRJEB31790 for biotransformation under microaerobic condition. The drug concentrations were measured over 7 timepoints collected between 0 and 12 hours of incubation by liquid-chromatography-coupled mass spectrometry (LC–MS); set-up: dose 5 uM, timepoint 0, 0.75, 1.5, 3, 6, 9, 12 hours; conditions: 5 µM
[10] = The drug is tested on Capnocytophaga ochracea strain: DSM7271 for biotransformation under anaerobic condition. The drug concentrations were measured over 6 timepoints collected between 0 and 12 hours of incubation by liquid-chromatography-coupled mass spectrometry (LC–MS); set-up: dose 5 uM, timepoint 0, 1.5, 3, 6, 9, 12 hours; conditions: 5 µM
[11] = The drug is tested on Ruminococcus gnavus strain: ATCC29149 for biotransformation under anaerobic condition. The drug concentrations were measured over 6 timepoints collected between 0 and 12 hours of incubation by liquid-chromatography-coupled mass spectrometry (LC–MS); set-up: dose 5 uM, timepoint 0, 1.5, 3, 6, 9, 12 hours; conditions: mediterraneibacter gnavus, 5 µM
[12] = The drug is tested on the gut metagenome community of T-02 with ENA study accession number: PRJEB31790 for biotransformation under anaerobic condition. The drug concentrations were measured over 7 timepoints collected between 0 and 12 hours of incubation by liquid-chromatography-coupled mass spectrometry (LC–MS); set-up: dose 5 uM, timepoint 0, 0.75, 1.5, 3, 6, 9, 12 hours; conditions: 5 µM
[13] = The drug is tested on the gut metagenome community of P-03 with ENA study accession number: PRJEB31790 for biotransformation under anaerobic condition. The drug concentrations were measured over 7 timepoints collected between 0 and 12 hours of incubation by liquid-chromatography-coupled mass spectrometry (LC–MS); set-up: dose 5 uM, timepoint 0, 0.75, 1.5, 3, 6, 9, 12 hours; conditions: 5 µM
[14] = The drug is tested on Streptococcus salivarius strain: DSM20560 for biotransformation under microaerobic condition. The drug concentrations were measured over 6 timepoints collected between 0 and 12 hours of incubation by liquid-chromatography-coupled mass spectrometry (LC–MS); set-up: dose 5 uM, timepoint 0, 1.5, 3, 6, 9, 12 hours; conditions: 5 µM
[15] = The drug is tested on Streptococcus sanguinis strain: DSM20567 for biotransformation under anaerobic condition. The drug concentrations were measured over 6 timepoints collected between 0 and 12 hours of incubation by liquid-chromatography-coupled mass spectrometry (LC–MS); set-up: dose 5 uM, timepoint 0, 1.5, 3, 6, 9, 12 hours; conditions: 5 µM
[16] = The drug is tested on Eubacterium rectale strain: DSM17629 for biotransformation under anaerobic condition. The drug concentrations were measured over 6 timepoints collected between 0 and 12 hours of incubation by liquid-chromatography-coupled mass spectrometry (LC–MS); set-up: dose 5 uM, timepoint 0, 1.5, 3, 6, 9, 12 hours; conditions: agathobacter rectalis, 5 µM
[17] = The drug is tested on Parabacteroides merdae strain: DSM19495 for biotransformation under anaerobic condition. The drug concentrations were measured over 6 timepoints collected between 0 and 12 hours of incubation by liquid-chromatography-coupled mass spectrometry (LC–MS); set-up: dose 5 uM, timepoint 0, 1.5, 3, 6, 9, 12 hours; conditions: 5 µM
[18] = The drug is tested on Collinsella aerofaciens strain: DSM3979 for biotransformation under anaerobic condition. The drug concentrations were measured over 6 timepoints collected between 0 and 12 hours of incubation by liquid-chromatography-coupled mass spectrometry (LC–MS); set-up: dose 5 uM, timepoint 0, 1.5, 3, 6, 9, 12 hours; conditions: 5 µM
[19] = The drug is tested on the gut metagenome community of A-06 with ENA study accession number: PRJEB31790 for biotransformation under anaerobic condition. The drug concentrations were measured over 7 timepoints collected between 0 and 12 hours of incubation by liquid-chromatography-coupled mass spectrometry (LC–MS); set-up: dose 5 uM, timepoint 0, 0.75, 1.5, 3, 6, 9, 12 hours; conditions: 5 µM
[20] = The drug is tested on the gut metagenome community of P-01 with ENA study accession number: PRJEB31790 for biotransformation under anaerobic condition. The drug concentrations were measured over 7 timepoints collected between 0 and 12 hours of incubation by liquid-chromatography-coupled mass spectrometry (LC–MS); set-up: dose 5 uM, timepoint 0, 0.75, 1.5, 3, 6, 9, 12 hours; conditions: 5 µM
[21] = The drug is tested on the gut metagenome community of T-03 with ENA study accession number: PRJEB31790 for biotransformation under anaerobic condition. The drug concentrations were measured over 7 timepoints collected between 0 and 12 hours of incubation by liquid-chromatography-coupled mass spectrometry (LC–MS); set-up: dose 5 uM, timepoint 0, 0.75, 1.5, 3, 6, 9, 12 hours; conditions: 5 µM
[22] = The drug is tested on the gut metagenome community of T-02 with ENA study accession number: PRJEB31790 for biotransformation under microaerobic condition. The drug concentrations were measured over 7 timepoints collected between 0 and 12 hours of incubation by liquid-chromatography-coupled mass spectrometry (LC–MS); set-up: dose 5 uM, timepoint 0, 0.75, 1.5, 3, 6, 9, 12 hours; conditions: 5 µM
[23] = The drug is tested on Prevotella copri strain: DSM18205 for biotransformation under anaerobic condition. The drug concentrations were measured over 6 timepoints collected between 0 and 12 hours of incubation by liquid-chromatography-coupled mass spectrometry (LC–MS); set-up: dose 5 uM, timepoint 0, 1.5, 3, 6, 9, 12 hours; conditions: segatella copri, 5 µM
[24] = The drug is tested on Lactobacillus paracasei strain: ATCC27092 for biotransformation under anaerobic condition. The drug concentrations were measured over 6 timepoints collected between 0 and 12 hours of incubation by liquid-chromatography-coupled mass spectrometry (LC–MS); set-up: dose 5 uM, timepoint 0, 1.5, 3, 6, 9, 12 hours; conditions: lacticaseibacillus paracasei, 5 µM
[25] = The drug is tested on the gut metagenome community of A-10 with ENA study accession number: PRJEB31790 for biotransformation under microaerobic condition. The drug concentrations were measured over 7 timepoints collected between 0 and 12 hours of incubation by liquid-chromatography-coupled mass spectrometry (LC–MS); set-up: dose 5 uM, timepoint 0, 0.75, 1.5, 3, 6, 9, 12 hours; conditions: 5 µM

C=CC[C@@H]1/C=C(\C)C[C@H](C)C[C@H](OC)[C@H]2O[C@@](O)(C(=O)C(=O)N3CCCC[C@H]3C(=O)O[C@H](/C(C)=C/[C@@H]3CC[C@@H](O)[C@H](OC)C3)[C@H](C)[C@@H](O)CC1=O)[C@H](C)C[C@@H]2OC.O [TACROLIMUS]
Bacterial Biotransformation [1]: Compound NOT metabolized
Bacterial Biotransformation [2]: Compound NOT metabolized
Bacterial Biotransformation [3]: Compound NOT metabolized
Bacterial Biotransformation [4]: Compound NOT metabolized
Bacterial Biotransformation [5]: Compound NOT metabolized
Bacterial Biotransformation [6]: Compound metabolized
Bacterial Biotransformation [7]: Compound NOT metabolized
Bacterial Biotransformation [8]: Compound NOT metabolized
Bacterial Biotransformation [9]: Compound NOT metabolized
Bacterial Biotransformation [10]: Compound NOT metabolized
Bacterial Biotransformation [11]: Compound NOT metabolized
Bacterial Biotransformation [12]: Compound metabolized
Bacterial Biotransformation [13]: Compound NOT metabolized
Bacterial Biotransformation [14]: Compound NOT metabolized
Bacterial Biotransformation [15]: Compound NOT metabolized
Bacterial Biotransformation [16]: Compound NOT metabolized
Bacterial Biotransformation [17]: Compound NOT metabolized
Bacterial Biotransformation [18]: Compound metabolized
Bacterial Biotransformation [19]: Compound metabolized
Bacterial Biotransformation [20]: Compound NOT metabolized
Bacterial Biotransformation [21]: Compound NOT metabolized
Bacterial Biotransformation [22]: Compound metabolized
Bacterial Biotransformation [23]: Compound NOT metabolized
Bacterial Biotransformation [24]: Compound NOT metabolized
Bacterial Biotransformation [25]: Compound metabolized

— ChEMBL document CHEMBL5724806, “Unraveling interindividual differences and functional consequences of gut microbial metabolism of immunosuppressants” (2024)
